The source of these data is US20210254173A1, “PREDICTIVE 7-GENE ASSAY AND PROGNOSTIC PROTEIN BIOMARKER FOR NON-SMALL CELL LUNG CANCER” (West Virginia University, priority 2018, published 2021).

What all share (format): in vivo, human
Assay [1] has as its system SLC39A8. Kind of assay: Chemoresponse prediction: Cox proportional hazard model using SLC39A8 ΔCt values in qRT-PCR assays of NSCLC patients. The conditions noted are these: prediction by high SLC39A8 expression. The procedure:
(§1) Patient samples. All NSCLC patients were staged I, II, or IIIA at the time of diagnosis. Tumor tissues were collected in surgical resections and were snap-frozen at −80° C. until used for RNA extraction. Tumor cell content was above 50% for qRT-PCR assays. Those with missing AJCC staging information, missing histology, death within 30 days of resection or from other disease conditions were excluded from further analysis. A total of 122 NSCLC patient samples were obtained from Case Western Reserve University (CWRU) Comprehensive Cancer Center. […] The tissue collection in this study was approved by an Institutional Review Board (IRB) at each institution.
RNA extraction, and quality and concentration assessments. […] The quality and integrity of the RNA, the 28S to 18S ratio, and a visual image of the 28S and 18S bands were evaluated on the 2100 Bioanalyzer (Agilent Technologies, CA). […] The RNA concentration of each sample was assessed using a Nanodrop-1000 Spectrophotometer (NanoDrop Tech, Germany). […]
(§2) Real-time quantitative RT-PCR low-density arrays. […]
(§3) Three hundred thirty seven (337) tumor samples were analyzed with good RNA quality using TaqMan microfluidic low-density array (LDA) plates on an ABI 7900HT Fast RT-PCR instrument (Applied Biosystems).

Assay [2] concerns FUT7. Description: Chemoresponse prediction: Cox proportional hazard model using FUT7 ΔCt values in qRT-PCR assays of NSCLC patients. The method, then:
Patient samples. All NSCLC patients were staged I, II, or IIIA at the time of diagnosis. Tumor tissues were collected in surgical resections and were snap-frozen at −80° C. until used for RNA extraction. Tumor cell content was above 50% for qRT-PCR assays. Those with missing AJCC staging information, missing histology, death within 30 days of resection or from other disease conditions were excluded from further analysis. A total of 122 NSCLC patient samples were obtained from Case Western Reserve University (CWRU) Comprehensive Cancer Center. Total RNA of good quality was extracted from 89 tumor specimens. […]
RNA extraction, and quality and concentration assessments. […] The quality and integrity of the RNA, the 28S to 18S ratio, and a visual image of the 28S and 18S bands were evaluated on the 2100 Bioanalyzer (Agilent Technologies, CA). RNA assessed as having good quality from […] tumor samples was included for further analysis. The RNA concentration of each sample was assessed using a Nanodrop-1000 Spectrophotometer (NanoDrop Tech, Germany). […]
as §2
Three hundred thirty seven (337) tumor samples were analyzed with good RNA quality using TaqMan microfluidic low-density array (LDA) plates on an ABI 7900HT Fast RT-PCR instrument (Applied Biosystems). Total RNA samples were analyzed on an Agilent 2100 Bioanalyzer RNA 6000 Nano LabChip. […]

The subject of assay [3] is ABCC4. Kind of assay: Chemoresponse prediction: Cox proportional hazard model using ABCC4 ΔCt values in qRT-PCR assays of NSCLC patients. The procedure: as §1
RNA extraction, and quality and concentration assessments. Total RNA was extracted from snap-frozen tumor tissues using a RNeasy mini kit according the manufacturer's protocol (Qiagen, USA), followed by elution in 30 μl of RNase-free water and storage at −80° C. The quality and integrity of the RNA, the 28S to 18S ratio, and a visual image of the 28S and 18S bands were evaluated on the 2100 Bioanalyzer (Agilent Technologies, CA). […] The RNA concentration of each sample was assessed using a Nanodrop-1000 Spectrophotometer (NanoDrop Tech, Germany).
Generation of complementary DNA (cDNA). The reverse transcriptase polymerase chain reaction was used to convert the high-quality single-stranded RNA samples to double-stranded cDNA, using an Applied Biosystems GeneAmp® PCR 9700 machine (Foster City, Calif.). For standardization across all samples, one microgram of RNA was used to generate cDNA.
Real-time quantitative RT-PCR low-density arrays. Real-time qRT-PCR assays of independent patient cohorts of NSCLC tumor samples were used to further select biomarkers to form a multi-gene assay from prognostic genes identified from microarray data in our previous studies.
as §3

Setting [4] is: ABCC4 ΔCt as covariate, Cox model, NSCLC patients treated with the named agent(s).

For `Nc1nc2[nH]cc(CCc3ccc(C(=O)N[C@@H](CCC(=O)O)C(=O)O)cc3)c2c(=O)[nH]1` [Alimta, pemetrexed], the Chemosensitive/resistant result in assay [1] was “Chemoresistant”.
With `N.N.O=C([O-])C1(C(=O)[O-])CCC1.[Pt+2]` [Carboplatin, carboplatin], in assay [2] (FUT7 ΔCt as covariate, Cox model, NSCLC patients treated with the named agent), the “Hazard ratio of death from disease with 95% CI” value was 1.605. Moreover, the Chemosensitive/resistant result in assay [2] (prediction by high FUT7 expression) is “Chemosensitive”.
As to `CC(=O)O[C@H]1C(=O)[C@@]2(C)[C@H]([C@H](OC(=O)c3ccccc3)[C@]3(O)C[C@H](OC(=O)[C@H](O)[C@@H](NC(=O)c4ccccc4)c4ccccc4)C(C)=C1C3(C)C)[C@]1(OC(C)=O)CO[C@@H]1C[C@@H]2O` [Taxol, paclitaxel], the Chemosensitive/resistant result in assay [1] was “Chemoresistant”. In assay [3] (setting [4]), the “Hazard ratio of death from disease with 95% CI” value is on record as 0.403 and the “Hazard ratio of recurrence with 95% CI” value is reported as 0.48. In addition, in assay [3] (prediction by high ABCC4 expression, patients treated with the named agent(s)), the Chemosensitive/resistant entry was “Chemoresistant”.
